Results on 89 sequences are retold here after the OligoGym collection.

Where “and” joins values, the source holds several entries; their conditions need not be identical. Equal values may be shown once. After the bases stand the sugars from the 5' end (letter, count) and the backbone: PS all phosphorothioate, else s phosphorothioate and o phosphodiester by linkage. Methylation of C is not given here. e = 2'-O-(2-methoxyethyl) (MOE); k = constrained ethyl (cEt); d = 2'-deoxy (DNA)

One data set addresses IRF4. Conditions: ASO, H929, 0.04 µM.
Consider CACATCAATGTTTTAG (sugars k3 d10 k3, PS), for which the target mRNA inhibition amounted to 14%.

Still in this data set, the particulars now being: ASO, KMS11, 0.2 µM.
As to CACATCAATGTTTTAG (sugars k3 d10 k3, PS), the target mRNA inhibition was 61% and 78%.

The same data set, now with this note: ASO, MM.1R, 0.0625 µM.
AGTTTAAGGGTTACGC (sugars k3 d10 k3, PS): the target mRNA inhibition is -2% and 15%.
Still for that read-out and setting: the same measure for CACATCAATGTTTTAG (sugars k3 d10 k3, PS): 48%; for GCCAACTTATAGCACT (sugars k3 d10 k3, PS): 17%.

Staying with this data set, now noted: ASO, MM.1R, 0.074 µM.
As to AGTTTAAGGGTTACGC (sugars k3 d10 k3, PS), the target mRNA inhibition came out at 7%.

The same data set, now with this note: ASO, MM.1R, 0.222 µM.
As to AGTTTAAGGGTTACGC (sugars k3 d10 k3, PS), the target mRNA inhibition came out at 8%.

Staying with this data set, now noted: ASO, MM.1R, 0.25 µM.
CACATCAATGTTTTAG (sugars k3 d10 k3, PS): the target mRNA inhibition turned out to be 62%.
With GCCAACTTATAGCACT (sugars k3 d10 k3, PS), the target mRNA inhibition was -17%.

Still in this data set, the particulars now being: ASO, MM.1R, 0.666 µM.
Regarding AGTTTAAGGGTTACGC (sugars k3 d10 k3, PS), the target mRNA inhibition is 20%.

The same data set, now with this note: ASO, MM.1R, 1 µM.
For the sequence “ACTGTTACCGATGCTT (sugars kkdddddddddkdkdk, PS)”, the target mRNA inhibition is 22% and 31%.
For “GCACATCAATGTTTTA (sugars kkddddddddddkeke, PS)”, the target mRNA inhibition is 49% and 50%.
As for “AGTGTCTAAAGTCCCA (sugars kkdddddddddkekek, PS)”, the target mRNA inhibition is 26% and 9%.
Same read-out and setting: the same measure for “TGATGTGATAGCTGAG (sugars kkddddddddddkeke, PS)”: 54%; for GAGAGTAAACTTGGCT (sugars k3 d10 k3, PS): 12%.
Same read-out and setting: with ACTTGCATCCATGTCA (sugars k3 d10 k3, PS) the figure was 35%; with AGTTTAAGGGTTACGC (sugars k3 d10 k3, PS), 4% and 24%; with “AAGCTTGATAAAGGCT (sugars e1 k2 d9 k2 e2, PS)”, -1%.
Same read-out and setting: the same measure for GCGAATGTGCCTTGTG (sugars k3 d10 k3, PS): 12%.
On to “GACACTTTTAGAGAGG (sugars kkdddddddddkekek, PS)”, for which the target mRNA inhibition stood at 17%.
On the same count and under the same terms, with “CAAGCAGTGATGTCAG (sugars kkdddddddddkdkdk, PS)” the figure was 46% and 49%; with GGACAATGGAGATACT (sugars k3 d10 k3, PS), 3%; with “GCACATCAATGTTTTA (sugars kkdddddddddekeke, PS)”, 10% and 12%.
Still for that read-out and setting: the same measure for CATATTCCAACAGGCG (sugars k3 d10 k3, PS): -1%.
Same read-out and setting: with CACATCAATGTTTTAG (sugars k3 d10 k3, PS) the figure was 66% and 75% and 72%; with CCAAACCTTAAGCTAT (sugars k3 d10 k3, PS), 18% and 34%; with “AAGTGTCTAAAGTCCC (sugars k2 d9 e3 k2, PS)”, 21% and 46%.
Regarding “TGGTTGGCTGGTCTTT (sugars kdddddddddkekeke, PS)”, the target mRNA inhibition was 31%.
The same measure, in the same setting: the same measure for CCAGCTTCGGTCGAGG (sugars k3 d10 k3, PS): -5%.
The same measure, in the same setting: with “ACTTTTAGAGAGGAGA (sugars kkdddddddddkekek, PS)” the figure was 40%.
Still for that read-out and setting: the same measure for “GGGATTATATACTGGT (sugars kdddddddddkekeke, PS)”: 29%; for GCTAAACCTGGCACCA (sugars k3 d10 k3, PS): 7%; for GCTGAAACGGTCAGCA (sugars k3 d10 k3, PS): 8%.
Regarding “AAGTTCATGTAAAGTC (sugars kkdddddddddekeke, PS)”, the target mRNA inhibition was 34% and 29%.
“AGTATGAGAAACGGCC (sugars kkdddddddddekeke, PS)”: the target mRNA inhibition was found to be 11%.
On the same count and under the same terms, with “ACTGCTTGAGGTTTTC (sugars k2 d9 e3 k2, PS)” the figure was 45%; with CTTTGAGGCTGCGAAG (sugars k3 d10 k3, PS), 2%; with “TGATGTGATAGCTGAG (sugars kddddddddddkekek, PS)”, 18%.
On the same count and under the same terms, with AGAAACAGAGACGCGG (sugars k3 d10 k3, PS) the figure was 11%; with AGGTAAGATCTCCATG (sugars k3 d10 k3, PS), 32%; with “GAAGCATTTTATCATC (sugars kkdddddddddkdkdk, PS)”, 1%.
Same read-out and setting: with CCACATACCTGAAACG (sugars k3 d10 k3, PS) the figure was -9%; with TGAGATATTCCTCTCA (sugars k3 d10 k3, PS), 18%.
For the sequence GACAGATGGCATGCGA (sugars k3 d10 k3, PS), the target mRNA inhibition stood at 16%.

Still in this data set, the particulars now being: ASO, MM.1R, 2 µM.
For AGTTTAAGGGTTACGC (sugars k3 d10 k3, PS), the target mRNA inhibition is 28%.

The data set is the same for the next values; noted with them: ASO, MM.1R, 4 µM.
Take AGTTTAAGGGTTACGC (sugars k3 d10 k3, PS): the target mRNA inhibition was 22% and 40%.
Same read-out and setting: the same measure for CACATCAATGTTTTAG (sugars k3 d10 k3, PS): 89%; for GCCAACTTATAGCACT (sugars k3 d10 k3, PS): 8%.

Still in this data set, the particulars now being: ASO, SK-MEL-28, 4 µM.
ATTTCACTGTAGGATT (sugars k3 d10 k3, PS): the target mRNA inhibition is 38%.
The same measure, in the same setting: with ACAGTAAGAGGGCAGT (sugars k3 d10 k3, PS) the figure was 84%; with CTGCAAATCCCTCTTG (sugars k3 d10 k3, PS), -33%; with CCTCTGAGCAGAACGA (sugars k3 d10 k3, PS), 76%.
The same measure, in the same setting: with GGGAAAGAGCTTTGGT (sugars k3 d10 k3, PS) the figure was 5%; with GCAAGATGACTCCATG (sugars k3 d10 k3, PS), 63%; with AAGGTTCCTGTCACCT (sugars k3 d10 k3, PS), -2%.
Same read-out and setting: the same measure for GCTCGGAGCGACCCAA (sugars k3 d10 k3, PS): 8%; for CCATGGGAGATCCGGC (sugars k3 d10 k3, PS): 54%.
Take AGTTTAAGGGTTACGC (sugars k3 d10 k3, PS): the target mRNA inhibition was 63%.
The same measure, in the same setting: with TTCCATAGATCAACAT (sugars k3 d10 k3, PS) the figure was 44%.
The same measure, in the same setting: with AATTGGCACGAGGAAG (sugars k3 d10 k3, PS) the figure was 28%.
Regarding GTAACAATACTGTAAG (sugars k3 d10 k3, PS), the target mRNA inhibition is 55%.
On to TTTCACATGATAAGGC (sugars k3 d10 k3, PS), for which the target mRNA inhibition came to 43%.
On the same count and under the same terms, the same measure for GACATTACTAGATTGT (sugars k3 d10 k3, PS): 70%; for CACTATGGTAGGAGTG (sugars k3 d10 k3, PS): -12%.
The same measure, in the same setting: with CTTTGATGAGCAGATC (sugars k3 d10 k3, PS) the figure was 12%.
On the same count and under the same terms, with GCCTTCTCGGAACTTT (sugars k3 d10 k3, PS) the figure was 32%.
Take TGAGAGACGAAAACAG (sugars k3 d10 k3, PS): the target mRNA inhibition is -9%.
Still for that read-out and setting: with CATTACTTAGACATTA (sugars k3 d10 k3, PS) the figure was 19%; with GCTGAGATAAGAAGCA (sugars k3 d10 k3, PS), 32%.
The same measure, in the same setting: the same measure for CATGATGTATACCAAC (sugars k3 d10 k3, PS): 51%.
On the same count and under the same terms, the same measure for TACCATATTGGAAACC (sugars k3 d10 k3, PS): 48%.
For GTATTAATATTCTGAC (sugars k3 d10 k3, PS), the target mRNA inhibition stood at 63%.
On the same count and under the same terms, the same measure for CTCTTTAAAATATCGC (sugars k3 d10 k3, PS): 56%; for GTAGAAGCCCACAAGA (sugars k3 d10 k3, PS): -4%.
The same measure, in the same setting: with TAGATAACATGAGAGT (sugars k3 d10 k3, PS) the figure was 50%; with AATCAGATGATGTCTA (sugars k3 d10 k3, PS), -3%; with GCGCATCCCCTGGGCG (sugars k3 d10 k3, PS), -4%.
GGCCTTAGCCTTCCTG (sugars k3 d10 k3, PS): the target mRNA inhibition was found to be 17%.
The same measure, in the same setting: the same measure for TATAACCGGTAGAGTG (sugars k3 d10 k3, PS): 21%; for GAACACACCAGGTTAA (sugars k3 d10 k3, PS): -2%.
Same read-out and setting: with CGCCCTGGACTCGGAG (sugars k3 d10 k3, PS) the figure was 36%; with AGGTAAATCTTCACTG (sugars k3 d10 k3, PS), 54%; with GGGTACCCTGCGCTGC (sugars k3 d10 k3, PS), 44%.
Still for that read-out and setting: with CTAATCTACAACAAAT (sugars k3 d10 k3, PS) the figure was 23%; with ACGATGATAGCTCACC (sugars k3 d10 k3, PS), 8%.
Take TGGAACAGTAACTTGA (sugars k3 d10 k3, PS): the target mRNA inhibition was 12%.
For the sequence TGTAAGGGCTGCTCAT (sugars k3 d10 k3, PS), the target mRNA inhibition was 49%.
Still for that read-out and setting: with ATGATATTAGAGACTG (sugars k3 d10 k3, PS) the figure was 74%; with GCAGTAAACGCAAGTC (sugars k3 d10 k3, PS), 54%; with AGTAAACTTGGCTGTG (sugars k3 d10 k3, PS), 38%.
The same measure, in the same setting: the same measure for GGAATGGCGGATAGAT (sugars k3 d10 k3, PS): 33%.
Turning to CAACAGTTCAAGTATT (sugars k3 d10 k3, PS), the target mRNA inhibition amounted to 35%.
The same measure, in the same setting: with GCGCCCAATCACCTTC (sugars k3 d10 k3, PS) the figure was 3%; with AGTGCAGGAGAGGCTG (sugars k3 d10 k3, PS), 36%.
The same measure, in the same setting: with GGGAACCTGAAAAGAG (sugars k3 d10 k3, PS) the figure was 21%; with TCCACTTCTGAATTCC (sugars k3 d10 k3, PS), 19%; with AGAGTGGGTGTTGGCC (sugars k3 d10 k3, PS), 25%.
On the same count and under the same terms, with GGTAAAGGAGTGCAGG (sugars k3 d10 k3, PS) the figure was 46%; with CCCAAAATACTTTGCA (sugars k3 d10 k3, PS), 64%.
Consider GATCACTCAGAATTTT (sugars k3 d10 k3, PS), for which the target mRNA inhibition was 50%.
On to GGTGAAACTGAGAGTG (sugars k3 d10 k3, PS), for which the target mRNA inhibition amounted to 8%.
Same read-out and setting: the same measure for CTACAAAGAGCACTGC (sugars k3 d10 k3, PS): 53%; for CACTTGTCTTGGGTGG (sugars k3 d10 k3, PS): 45%.
